Measurements published in patent publication US12227509B2, “Dihydropyrazolopyrazinone derivative having MGAT2 inhibitory activity” (Shionogi & Co., Ltd., priority 2019, dated 2025).
In brackets after ≈: the same amount, converted by molar mass.

How the values were obtained:
CYP1A2 = CYP1A2 (Homo sapiens (Human), UniProt P05177); test: CYP inhibition test, CYP1A2; format: in vitro ADME; conditions: pooled human liver microsomes; 7-ethoxyresorufin O-deethylation; given as 'five kinds'
Text: (§1) Using commercially available pooled human hepatic microsome, and employing, as markers, 7-ethoxyresorufin O-deethylation (CYP1A2), tolbutamide methyl-hydroxylation (CYP2C9), mephenytoin 4'-hydroxylation (CYP2C19), dextromethorphan 0-demethylation (CYP2D6), and terfenadine hydroxylation (CYP3A4) as typical substrate metabolism reactions of human main five CYP enzyme forms (CYP1A2, 2C9, 2C19, 2D6, 3A4), an inhibitory degree of each metabolite production amount by the compound of the present invention was assessed. The reaction conditions are as follows: substrate, 0.5 μmol/L ethoxyresorufin (CYP1A2), 100 μmol/L tolbutamide (CYP2C9), 50 μmol/L S-mephenitoin (CYP2C19), 5 μmol/L dextromethorphan (CYP2D6), 1 μmol/L terfenedine (CYP3A4); reaction time, 15 minutes; reaction temperature, 37° C.; enzyme, pooled human liver microsomes 0.2 mg protein/mL; concentrations of the compound of the present invention, 1, 5, 10, 20 μmol/L (four points). As a reaction solution, each five kinds of substrates, human liver microsomes, or compound of the present invention in 50 mmol/L Hepes buffer were added to a 96-well plate at the composition as described above, and NADPH, as a cofactor was added to initiate metabolism reactions. After the incubation at 37° C. for 15 minutes, a methanol/acetonitrile=1/[…]) solution was added to stop the reaction. After the centrifugation at 3000 rpm for 15 minutes, resorufin (CYP1A2 metabolite) in the supernatant was quantified by a fluorescent multilabel counter or LC/MS/MS, and tolbutamide hydroxide (CYP2C9 metabolite), mephenytoin 4' hydroxide (CYP2C19 metabolite), dextrorphan (CYP2D6 metabolite), and terfenadine alcohol (CYP3A4 metabolite) were quantified by LC/MS/MS. Addition of only DMSO being a solvent dissolving a drug to a reaction system was adopted as a control (100%). Remaining activity (%) was calculated. IC50 was calculated by reverse presumption by a logistic model using the concentration and an inhibition rate.

hERG (IKr) = hERG (IKr) (Homo sapiens (Human), UniProt Q12809); test: hERG test; format: cell-based; conditions: CHO cells expressing hERG channel, pH 7.4, 10 μmol/L of test compound, read-out: % inhibition of hERG tail peak current (IKr)
Text: For the purpose of assessing risk of an electrocardiogram QT interval prolongation of the compound of the present invention, effects of the compound of the present invention on delayed rectifier K^+ current (IKr), which plays an important role in the ventricular repolarization process, was studied using CHO cells expressing human ether-a-go-go related gene (hERG) channel.
After a cell was retained at a membrane potential of −80 mV by whole cell patch clamp method using an automated patch clamp system (QPatch; Sophion BIoscience A/S), IKr induced by application of a leak potential of −50 mV followed by depolarization pulse stimulation at +20 mV for 2 seconds and, further, repolarization pulse stimulation at −50 mV for 2 seconds, was recorded. […] From the recording IKr, an absolute value of the tail peak current was measured based on the current value at the resting membrane potential using analysis software (Falster Patch; Sophion Bioscience A/S). Further, the % inhibition of tail peak current for the compound of the present invention relative to the tail peak current after application of the vehicle is calculated to assess influence of the compound of the present invention on IKr.

[1] = BA test (oral absorption); format: in vivo; conditions: plasma; mice or SD rats; from AUCs of oral and intravenous administration
Experimental: Materials and methods for experiments to evaluate oral absorption
(1) Animals: the mice or SD rats were used.
(2) Breeding conditions: the mice or SD rats were allowed to freely take solid food and sterilized tap water.
(3) Setting of dosage and grouping: Oral administration and intravenous administration were performed with a predetermined dosage. Grouping was set as below. (dosage changed per compound)
Oral administration: 1 to 30 mg/kg (n=2 to 3)
Intravenous administration: 0.5 to 10 mg/kg (n=2 to 3)
(4) Preparation of administration solution: Oral administration was performed in the form of a suspension or a solution. Intravenous administration was performed after solubilization.
(5) Routes of administration: Oral administration was performed mandatory into the stomach by oral sonde. Intravenous administration was performed from caudal vein or femoral vein by syringes with needle.
(6) Evaluation items: blood was collected over time, and the plasma concentration of the compound of the present invention was measured by LC/MS/MS.
(7) Statistical analysis: regarding the transition of the plasma concentration of the compound of the present invention, the area under the plasma concentration-time curve (AUC) was calculated by non-linear least squares program WinNonlin (registered trademark), and the bioavailability (BA) of the compound of the present invention was calculated from the AUCs of the oral administration group and intravenous administration group.

CYP2C19 = CYP2C19 (Homo sapiens (Human), UniProt P33261); test: CYP inhibition test, CYP2C19; format: in vitro ADME; conditions: pooled human liver microsomes; mephenytoin 4′-hydroxylation; given as 'five kinds'
Text: as §1

CYP2C9 = CYP2C9 (Homo sapiens (Human), UniProt P11712); test: CYP inhibition test, CYP2C9; format: in vitro ADME; conditions: pooled human liver microsomes; tolbutamide methyl-hydroxylation; given as 'five kinds'
Text: as §1

[2] = Metabolism stability test (human liver microsomes); format: in vitro ADME; conditions: compound concentration 0.5 μmol/L, 37° C., 30 minutes, NADPH
Experimental: Using commercially available pooled human hepatic microsomes, the compound of the present invention was reacted for a constant time, a remaining rate was calculated by comparing a reacted sample and an unreacted sample, thereby, a degree of metabolism of the compound of the present invention in liver was assessed.
A reaction was performed (oxidative reaction) at 37° C. for 0 minute or 30 minutes in the presence of 1 mmol/L NADPH in 0.2 mL of a buffer (50 mmol/L Tris-HCl pH 7.4, 150 mmol/L potassium chloride, 10 mmol/L magnesium chloride) containing 0.5 mg protein/mL of human liver microsomes. After the reaction, 50 μL of the reaction solution was added to 100 μL of a methanol/acetonitrile=1/1 (v/v) solution, mixed and centrifuged at 3000 rpm for 15 minutes. The compound of the present invention in the supernatant was quantified by LC/MS/MS, and a remaining amount of the compound of the present invention after the reaction was calculated, letting a compound amount at 0 minute reaction time to be 100%.

CYP3A4 = CYP3A4 (Homo sapiens (Human), UniProt P08684); test: CYP inhibition test, CYP3A4; format: in vitro ADME; conditions: pooled human liver microsomes; terfenadine hydroxylation; given as 'five kinds'
Text: as §1

CYP2D6 = CYP2D6 (Homo sapiens (Human), UniProt P10635); test: CYP inhibition test, CYP2D6; format: in vitro ADME; conditions: pooled human liver microsomes; dextromethorphan O-demethylation; given as 'five kinds'
Text: as §1

[3] = Solubility test (1% DMSO addition, pH 6.8 artificial intestinal juice); format: physicochemical; conditions: kinetic from dmso stock, 16 hours at 25° C.
Experimental: The solubility of the compound of the present invention was determined under 1% DMSO addition conditions. 10 mmol/L solution of the compound was prepared with DMSO, and 6 μL of the solution of the compound of the present invention was added to 594 μL of pH 6.8 artificial intestinal juice (118 mL of 0.2 mol/L NaOH test solution and water were added to 250 mL of 0.2 mol/L potassium dihydrogen phosphate test solution to reach 1000 mL). The mixture was left standing for 16 hours at 25° C., and the mixture was vacuum-filtered. The filtrate was two-fold diluted with methanol/water=1/1 (V/V), and the compound concentration in the filtrate was measured with HPLC or LC/MS/MS by the absolute calibration method. The dilution concentration and the dilution solvent were changed as necessary.

Solution stability test = format: physicochemical; conditions: 18 hr
Experimental: The compound of the present invention (0.4 mg) was weighed into a 4 mL screw vial, and 2 mL of various media pH=1 (0.1 N HClaq.+30% MeCN), pH=7 (pH 7 phosphate Buffer (100 mM+30% MeCN) or pH=9 (pH 9 carbonate Buffer (100 mM+30% MeCN) was added, respectively. Complete dissolution was confirmed. If not dissolved, filtration was performed with a 0.45 μm filter. The solution or filtrate was placed in an HPLC vial. HPLC sample cooler was set at 40° C., and sequence was set so that sampling was performed by HPLC at 0, 3, 6, 9, 12, 15, and 18 hours. Stability over time was evaluated by setting the area value of 0 hr product to 100%.

recombinant human MGAT2 = recombinant human MGAT2 (Homo sapiens (Human), UniProt Q3SYC2); test: Measurement of human MGAT2 inhibitory activity; format: biochemical; conditions: concentration exhibiting 50% enzyme inhibition; recombinant human MGAT2, 2-Oleoylglycerol/Oleoyl-CoA
Method in brief: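 Membrane fraction of baculovirus-infected Sf-9 cells expressing N-terminally Flag-tagged full-length human MGAT2, in 100 mmol/L phosphate pH 7.4 with 2 mmol/L DTT. The substrate solution held 30 μmol/L 2-oleoylglycerol and 10 μmol/L oleoyl-CoA. After 1 h at room temperature, diolein/diolein-d5 ratio was read by ESI Q-TOF MS and % inhibition derived against enzyme and no-enzyme controls.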

Sequence of CYP2C19 (P33261 whole entry): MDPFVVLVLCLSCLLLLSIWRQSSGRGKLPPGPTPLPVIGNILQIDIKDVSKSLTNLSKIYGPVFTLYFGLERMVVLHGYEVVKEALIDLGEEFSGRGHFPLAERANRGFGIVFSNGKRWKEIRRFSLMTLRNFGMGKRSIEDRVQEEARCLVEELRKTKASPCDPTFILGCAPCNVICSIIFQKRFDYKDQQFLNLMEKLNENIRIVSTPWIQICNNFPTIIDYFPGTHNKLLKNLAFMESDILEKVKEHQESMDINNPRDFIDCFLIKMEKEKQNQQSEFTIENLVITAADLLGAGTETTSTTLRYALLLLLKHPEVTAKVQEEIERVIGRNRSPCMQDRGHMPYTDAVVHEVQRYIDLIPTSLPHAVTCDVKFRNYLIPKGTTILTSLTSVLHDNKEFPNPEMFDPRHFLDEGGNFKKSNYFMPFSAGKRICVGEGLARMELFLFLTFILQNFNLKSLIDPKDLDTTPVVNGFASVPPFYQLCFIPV
Sequence of CYP2C9 (P11712 whole entry): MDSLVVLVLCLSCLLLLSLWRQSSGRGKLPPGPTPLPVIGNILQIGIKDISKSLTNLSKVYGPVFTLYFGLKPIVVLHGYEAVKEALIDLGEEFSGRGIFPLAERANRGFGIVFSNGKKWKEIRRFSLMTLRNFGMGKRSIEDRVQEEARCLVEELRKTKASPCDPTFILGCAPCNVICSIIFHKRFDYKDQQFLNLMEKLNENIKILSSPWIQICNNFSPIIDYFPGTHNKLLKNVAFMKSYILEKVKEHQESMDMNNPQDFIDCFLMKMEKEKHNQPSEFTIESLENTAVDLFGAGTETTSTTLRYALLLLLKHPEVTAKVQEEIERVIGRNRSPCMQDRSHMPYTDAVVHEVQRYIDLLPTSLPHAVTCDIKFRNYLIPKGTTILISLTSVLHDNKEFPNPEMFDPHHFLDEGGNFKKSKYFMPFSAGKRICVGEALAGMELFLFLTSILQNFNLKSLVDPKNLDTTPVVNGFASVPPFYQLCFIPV
Sequence of CYP3A4 (P08684 whole entry): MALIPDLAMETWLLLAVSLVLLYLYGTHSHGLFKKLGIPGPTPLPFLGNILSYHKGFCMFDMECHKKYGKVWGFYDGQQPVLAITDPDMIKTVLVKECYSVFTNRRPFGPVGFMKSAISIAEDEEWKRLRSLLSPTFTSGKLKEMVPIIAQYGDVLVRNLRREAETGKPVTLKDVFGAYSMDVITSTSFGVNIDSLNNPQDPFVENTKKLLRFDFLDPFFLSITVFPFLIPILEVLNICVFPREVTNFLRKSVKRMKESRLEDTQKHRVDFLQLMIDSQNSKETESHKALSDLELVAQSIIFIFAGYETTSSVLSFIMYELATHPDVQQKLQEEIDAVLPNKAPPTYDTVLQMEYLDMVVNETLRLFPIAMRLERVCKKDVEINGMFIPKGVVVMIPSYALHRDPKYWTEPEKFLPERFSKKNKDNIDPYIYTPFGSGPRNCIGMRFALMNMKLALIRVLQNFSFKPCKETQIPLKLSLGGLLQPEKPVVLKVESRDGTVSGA
Sequence of CYP1A2 (P05177 whole entry): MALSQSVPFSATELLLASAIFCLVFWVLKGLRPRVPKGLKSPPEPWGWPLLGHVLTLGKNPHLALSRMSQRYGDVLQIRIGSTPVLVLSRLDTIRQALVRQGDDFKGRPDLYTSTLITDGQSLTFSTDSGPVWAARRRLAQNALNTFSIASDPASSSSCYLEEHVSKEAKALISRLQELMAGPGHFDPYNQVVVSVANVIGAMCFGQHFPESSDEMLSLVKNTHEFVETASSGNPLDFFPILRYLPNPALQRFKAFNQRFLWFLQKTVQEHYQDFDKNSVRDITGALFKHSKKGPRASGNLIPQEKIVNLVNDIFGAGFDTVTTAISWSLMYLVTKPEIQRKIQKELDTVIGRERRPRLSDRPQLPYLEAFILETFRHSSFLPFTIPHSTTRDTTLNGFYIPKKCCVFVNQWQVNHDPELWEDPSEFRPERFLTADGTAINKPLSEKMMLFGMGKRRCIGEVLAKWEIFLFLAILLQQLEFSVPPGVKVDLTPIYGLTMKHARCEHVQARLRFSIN
Sequence of hERG (IKr) (Q12809 whole entry): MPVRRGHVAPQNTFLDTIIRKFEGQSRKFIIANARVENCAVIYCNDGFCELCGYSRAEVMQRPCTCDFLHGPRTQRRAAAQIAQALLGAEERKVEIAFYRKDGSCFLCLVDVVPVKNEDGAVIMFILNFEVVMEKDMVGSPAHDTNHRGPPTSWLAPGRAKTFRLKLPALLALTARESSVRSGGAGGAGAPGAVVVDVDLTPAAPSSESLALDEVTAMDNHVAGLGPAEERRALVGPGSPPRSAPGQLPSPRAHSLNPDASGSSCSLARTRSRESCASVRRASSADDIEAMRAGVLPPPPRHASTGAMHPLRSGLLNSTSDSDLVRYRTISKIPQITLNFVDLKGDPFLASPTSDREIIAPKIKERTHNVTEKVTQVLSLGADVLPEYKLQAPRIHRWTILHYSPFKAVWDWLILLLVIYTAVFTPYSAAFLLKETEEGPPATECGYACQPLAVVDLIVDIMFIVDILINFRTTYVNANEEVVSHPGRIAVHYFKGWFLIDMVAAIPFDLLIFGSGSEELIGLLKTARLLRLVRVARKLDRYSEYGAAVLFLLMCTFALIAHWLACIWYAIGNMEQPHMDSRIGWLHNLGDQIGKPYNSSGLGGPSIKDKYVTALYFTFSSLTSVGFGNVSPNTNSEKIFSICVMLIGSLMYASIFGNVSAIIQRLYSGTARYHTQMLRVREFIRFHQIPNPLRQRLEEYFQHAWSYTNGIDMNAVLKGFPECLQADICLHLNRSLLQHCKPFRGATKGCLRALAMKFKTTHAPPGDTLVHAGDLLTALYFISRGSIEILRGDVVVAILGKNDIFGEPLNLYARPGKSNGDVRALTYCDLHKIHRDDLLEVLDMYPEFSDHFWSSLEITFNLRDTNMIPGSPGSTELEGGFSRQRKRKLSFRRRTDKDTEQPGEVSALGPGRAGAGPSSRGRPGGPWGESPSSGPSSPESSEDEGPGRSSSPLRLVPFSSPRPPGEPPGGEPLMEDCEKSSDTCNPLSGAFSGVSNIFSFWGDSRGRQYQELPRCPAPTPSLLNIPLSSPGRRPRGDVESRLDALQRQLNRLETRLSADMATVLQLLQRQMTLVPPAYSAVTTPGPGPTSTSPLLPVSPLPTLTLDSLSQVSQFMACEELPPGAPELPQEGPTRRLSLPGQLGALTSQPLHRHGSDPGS
Sequence of CYP2D6 (P10635 whole entry): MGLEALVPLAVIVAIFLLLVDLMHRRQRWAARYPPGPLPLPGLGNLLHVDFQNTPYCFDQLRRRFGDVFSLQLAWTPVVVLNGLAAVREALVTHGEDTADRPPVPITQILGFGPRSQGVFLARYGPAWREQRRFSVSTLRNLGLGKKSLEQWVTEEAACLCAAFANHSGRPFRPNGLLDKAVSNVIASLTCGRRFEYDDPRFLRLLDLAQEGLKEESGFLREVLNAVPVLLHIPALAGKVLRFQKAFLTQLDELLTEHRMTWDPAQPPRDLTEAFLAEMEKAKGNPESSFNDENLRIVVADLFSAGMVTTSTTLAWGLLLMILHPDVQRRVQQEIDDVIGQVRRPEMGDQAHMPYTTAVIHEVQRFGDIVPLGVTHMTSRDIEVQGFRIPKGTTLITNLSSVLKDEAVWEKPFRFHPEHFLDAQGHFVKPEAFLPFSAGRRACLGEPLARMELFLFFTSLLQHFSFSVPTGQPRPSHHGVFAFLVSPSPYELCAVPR
Sequence of recombinant human MGAT2 (Q3SYC2 whole entry): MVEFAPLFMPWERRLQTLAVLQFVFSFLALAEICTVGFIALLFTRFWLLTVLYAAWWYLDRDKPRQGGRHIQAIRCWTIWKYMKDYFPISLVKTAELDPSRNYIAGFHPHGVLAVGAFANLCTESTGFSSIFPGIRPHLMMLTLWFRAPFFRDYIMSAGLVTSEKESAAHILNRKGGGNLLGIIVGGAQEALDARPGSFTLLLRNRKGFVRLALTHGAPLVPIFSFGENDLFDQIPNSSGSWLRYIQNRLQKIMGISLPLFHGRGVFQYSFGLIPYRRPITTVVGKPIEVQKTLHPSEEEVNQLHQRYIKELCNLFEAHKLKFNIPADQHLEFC

SMILES	IC50 (CYP1A2)	bioavailability [1]	IC50 (CYP2C19)	IC50 (CYP2C9)	Remaining rate [2]	IC50 (CYP3A4)	IC50 (CYP2D6)	solubility at 16 h [3]	Residual rate (Solution stability test; pH=1, 40° C.)	Residual rate (Solution stability test; pH=7, 40° C.)	Residual rate (Solution stability test; pH=9, 40° C.)	IC50 (recombinant human MGAT2)	inhibition at 10 min, 10 μmol/L (hERG (IKr))
CS(=O)(=O)CC(=O)Nc1c(-c2ccc(F)c(F)c2)nn2c1C(=O)N[C@@]1(CCc3cc(OCC(F)(F)F)ccc31)C2 [Compound I-33]	> 20 µM	60.5%	> 20 µM	> 20 µM	98.5%	> 20 µM	> 20 µM	–	–	–	–	–	21.3%
CS(=O)(=O)CC(=O)Nc1c(-c2ccc(Cl)cn2)nn2c1C(=O)N[C@@]1(CCOc3cc(F)cc(F)c31)C2 [Compound I-137]	–	49%	–	–	101%	–	–	> 50 µM	–	–	–	–	23.6%
CS(=O)(=O)CC(=O)Nc1c(-c2ccc(C#N)cn2)nn2c1C(=O)N[C@@]1(CCc3cc(OCC(F)(F)F)ccc31)C2 [Compound I-3]	–	–	–	–	–	–	–	–	100.2%	100.9%	100.2%	0.00199 µM	–

The next lines start with results.

IC50 (CYP1A2)	bioavailability [1]	IC50 (CYP2C19)	IC50 (CYP2C9)	Remaining rate [2]	IC50 (CYP3A4)	IC50 (CYP2D6)	solubility at 16 h [3]	Residual rate (Solution stability test; pH=1, 40° C.)	Residual rate (Solution stability test; pH=7, 40° C.)	Residual rate (Solution stability test; pH=9, 40° C.)	IC50 (recombinant human MGAT2)	SMILES	inhibition at 10 min, 10 μmol/L (hERG (IKr))
> 20 µM	66.2%	> 20 µM	> 20 µM	106%	> 20 µM	> 20 µM	> 50 µM	–	–	–	–	CS(=O)(=O)CC(=O)Nc1c(-c2ccc(Cl)cn2)nn2c1C(=O)N[C@@]1(CCc3cc(F)cc(F)c31)C2 [Compound I-142]	10.6%
> 20 µM	67%	> 20 µM	> 20 µM	99.4%	> 20 µM	> 20 µM	48.9 µM (≈ 25.8 µg/mL)	–	–	–	–	CS(=O)(=O)CC(=O)Nc1c(-c2ccc(C3CC3)cn2)nn2c1C(=O)N[C@@]1(CCc3cc(F)cc(F)c31)C2 [Compound I-141]	14%
